Key:
[1] = tested on: Trichophyton rubrum (T. rubrum) ATCC10218; assay: Antifungal activity test against dermatophytes (MIC); assay type: cell-based; conditions: 80% growth inhibiting concentration, RPMI1640/MOPS, 28° C., 4 days, WST8
Protocol: (§1) Measurement of the anti-trichophyton activity of the compound of the formula (I) comprised in the patch of the present invention was carried out by the following method. The compound to be evaluated was used by dissolving in dimethyl sulfoxide (DMSO). As a medium for the test, RPMI1640 medium containing 0.165M of 3-morpholinopropanesulfonic acid (MOPS) was used. As fungi to be tested, Trichophyton mentagrophytes (T. mentagrophytes) ATCC18748 or Trichophyton rubrum (T. rubrum) ATCC10218 was used. The testing fungal strain was apportioned to 100 μl with a concentration of 1×10^4 conidia/ml, mixed with a compound to be evaluated on a 96-well half area plate so that the DMSO concentration became 1%, and cultured at a cultivation temperature of 28° C. for 3 days (Trichophyton mentagrophytes) or 4 days (Trichophyton rubrum). Thereafter, 5 μl of Cell Counting Kit 8 (WST8) was added thereto, and absorbances at 450 nm and 595 nm were measured to use these as background values. Thereafter, these were cultivated at 28° C. for 5 hours (Trichophyton mentagrophytes) or overnight (Trichophyton rubrum) to cause a color, and absorbances at 450 nm and 595 nm were measured again. A growth inhibiting rate was calculated from the difference to the background values, and a 80% growth inhibiting concentration was made an MIC value (μg/ml).

[2] = tested on: Trichophyton mentagrophytes (T. mentagrophytes) ATCC18748; assay: as above; assay type: cell-based; conditions: 80% growth inhibiting concentration, RPMI1640/MOPS, 28° C., 3 days, WST8
Protocol: as §1

Compound | MIC (T. rubrum) [1] | MIC (T. mentagrophytes) [2]
COc1ccc(-n2nc(C)cc2C)c(O)c1 [compound 45] | A (≤2 μg/ml) | A (≤1 μg/ml)
Cc1cc(C)n(-c2c(C)cccc2O)n1 [compound 46] | D (>32-64 μg/ml) | E (Inhibited less than 50% with 32 μg/ml)
Cc1cc(C)n(-c2ccc(CO)cc2O)n1 [compound 47] | B (4-16 μg/ml) | B (2 to 8 μg/ml)
CNc1ccc(-n2nc(C)cc2C)c(O)c1 [compound 48] | B (4-16 μg/ml) | B (2 to 8 μg/ml)
Cc1ccc(O)c(-n2nc(C)cc2C)c1 [compound 49] | D (>32-64 μg/ml) | E (Inhibited less than 50% with 32 μg/ml)
Cc1cc(C)n(-c2ccc(C(F)(F)F)cc2O)n1 [compound 50] | B (4-16 μg/ml) | B (2 to 8 μg/ml)
Cc1cc(C)n(-c2cccc(C)c2O)n1 [compound 51] | D (>32-64 μg/ml) | E (Inhibited less than 50% with 32 μg/ml)
CCc1ccc(-n2nc(C)cc2C)c(O)c1 [compound 52] | A (≤2 μg/ml) | A (≤1 μg/ml)
Cc1nn(-c2ccccc2O)c(C)c1F [compound 53] | B (4-16 μg/ml) | B (2 to 8 μg/ml)
Cc1cc(C)n(-c2ccc(Br)cc2O)n1 [compound 54] | A (≤2 μg/ml) | A (≤1 μg/ml)
Cc1nn(-c2ccc(Br)cc2O)c(C)c1Cl [compound 55] | A (≤2 μg/ml) | A (≤1 μg/ml)
Cc1nn(-c2ccc(Br)cc2O)c(C)c1C [compound 56] | A (≤2 μg/ml) | A (≤1 μg/ml)
CC(=O)Oc1ccc(-n2nc(C)cc2C)c(O)c1 [compound 57] | B (4-16 μg/ml) | B (2 to 8 μg/ml)
CC(=O)Oc1ccc(-n2nc(C)c(Cl)c2C)c(O)c1 [compound 58] | A (≤2 μg/ml) | B (2 to 8 μg/ml)
CC(=O)Oc1ccc(-n2nc(C)c(C)c2C)c(O)c1 [compound 59] | B (4-16 μg/ml) | B (2 to 8 μg/ml)
Cc1cc(C)n(-c2cc(Cl)c(C)cc2O)n1 [compound 61] | C (16-32 μg/ml) | C (16 to 32 μg/ml)
Cc1nn(-c2ccc(O)cc2O)c(C)c1Cl [compound 63] | A (≤2 μg/ml) | A (≤1 μg/ml)
